Measured values as given in US20230322724A1, “HETEROCYCLIC COMPOUNDS AS CBP/EP300 BROMODOMAIN INHIBITORS” (AURIGENE ONCOLOGY LIMITED, priority 2020, published 2023).
Read-outs that look alike come from different tables or passages of the source.

Columns and labels:
[1] = target: T1, recombinant BRD4 FL bromodomain (Homo sapiens, UniProt O60885); test: BRD4 FL TR-FRET displacement assay; format: binding; settings: for IC50: dose-response, read-out: IC50 (group A, B, C); for inhibition at 10 µM: read-out: % Inhibition (10 μM)
T1 construct: fused on or other part: 6xHis tag, inferred from detection with Mab ANTI 6HIS-XL665
Description: The potency of compounds to inhibit BRD4 FL enzyme was tested in a TR-FRET displacement assay using recombinant BRD4 FL bromodomain obtained In-house. The assay buffer was 50 mM HEPES (pH 7.5), 50 mM NaCl, 500 μM CHAPS. 10 nM of BRD4 FL & 300 nM of Biotinylated Acetyl histone H4 (Lys 5, 8, 12, 16) (Millipore, USA) was incubated at room temperature for 30 minutes, the reaction was initiated by adding the pre-incubated enzyme ligand mixture to the test compounds. After 30 min incubation, the reaction was stopped by the addition of stop mix containing 1 nM of Europium Streptavidin cryptate (Cisbio, USA) and 5 nM of Mab ANTI 6HIS-XL665 (Cisbio, USA) dilutes in assay buffer containing 2.4M Potassium Fluoride. Fluorescence emission of the samples at 665 and 615 nm were measured at an excitation of 340 nm and their ratio was plotted against the compound concentrations to generate dose-response curve. The percent inhibition of the test compounds is calculated using the ratio of enzyme activity controls.
Selected compounds of the present invention were screened in the above-mentioned assay procedures and IC50 values were determined by fitting the dose-response data to sigmoidal curve fitting equation using Graph pad prism software V7.

[2] = target: T2, recombinant CREBBP bromodomain (Homo sapiens, UniProt Q92793); test: CBP TR-FRET displacement assay; format: binding; settings: for IC50: dose-response, read-out: IC50 (group A, B, C); for inhibition at 10 µM: compound at 10 μM
T2 construct: recombinant CREBBP bromodomain obtained from BPS Bioscience, USA; purchased BPS Bioscience, USA
In short: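 CREBBP bromodomain (50 nM) preincubated 30 min at room temperature with 500 nM biotinylated ligand in HEPES pH 7.5 buffer with TCEP, then 60 min with compound. Eu-anti-His/APC-streptavidin TR-FRET 665/615 nm ratio read; IC50 from sigmoidal dose-response fit.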

T2 sequence (Q92793 1085-1192 limits assumed): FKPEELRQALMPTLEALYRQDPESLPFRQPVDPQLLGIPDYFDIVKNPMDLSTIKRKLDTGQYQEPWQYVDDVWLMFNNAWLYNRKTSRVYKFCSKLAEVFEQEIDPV

| SMILES | IC50 ([1]; BRD4 FL) | IC50 [2] | inhibition at 10 µM ([1]; BRD4 FL, compound at 10 μM) | inhibition at 10 µM [2] | inhibition at 10 µM [1] |
| --- | --- | --- | --- | --- | --- |
| Cc1cc2c(N3CCN(C)c4cc(-c5cnn(C)c5)ncc43)cc(N3CCOC(C)C3)cc2n(C)c1=O (centres unmarked) [Example 147] |  | 51 to 100 nM | 66% |  |  |
| CC(=O)N1CCN(c2cc(N3CCOCC3)cc3c2cc(C)c(=O)n3C)c2cnc(-c3cnn(C)c3)cc21 [Example 162, 5-(1-Acetyl-7-(1-methyl-1H-pyrazol-4-yl)-2,3-dihydropyrido[3,4-b]pyrazin-4(1H)-yl)-1,3-dimethyl-7-morpholinoquinolin-2(1H)-one] | 2010 to 5000 nM | < 50 nM |  |  |  |
| Cc1cc2c(N3CCN(C)c4cc(-c5cnn(C)c5)ncc43)cc(OC(C)C)cc2n(C)c1=O [Example 156, 7-Isopropoxy-1,3-dimethyl-5-(1-methyl-7-(1-methyl-1H-pyrazol-4-yl)-2,3-dihydropyrido[3,4-b]pyrazin-4(1H)-yl)quinolin-2(1H)-one] |  | 51 to 100 nM |  |  | 47% |
| Cc1cc2c(N3CCN(C)c4cc(F)c(S(N)(=O)=O)cc43)cc(N3CCOCC3)cc2n(C)c1=O [Example 88] | 2010 to 5000 nM | < 50 nM |  |  |  |
| CNC(=O)C1CCN(c2cc3c(cc2F)N(c2cc(OC)cc4c2cc(C)c(=O)n4C)CCN3C)CC1 [Example 33] | 2010 to 5000 nM | 51 to 100 nM |  |  |  |
| Cc1cc2c(N3CCNc4cc(-c5cnn(C)c5)ncc43)cc(N3CCOCC3)cc2n(C)c1=O [Example 161, 1,3-Dimethyl-5-(7-(1-methyl-1H-pyrazol-4-yl)-2,3-dihydropyrido[3,4-b]pyrazin-4(1H)-yl)-7-morpholinoquinolin-2(1H)-one] |  | > 10 nM | 16% |  |  |
| Cc1cc2c(N3CCCc4cc(-c5cnn(C)c5)c(C(F)F)cc43)nc(N3C4CCC3COC4)cc2n(C)c1=O [Example 218] | 2010 to 5000 nM | < 50 nM |  |  |  |
| COc1cc(N2CCCc3cc(N4CCN(C(C)=O)CC4)ncc32)c2cc(C)c(=O)n(C)c2c1 [Example 166, 5-(6-(4-Acetylpiperazin-1-yl)-3,4-dihydro-1,7-naphthyridin-1(2H)-yl)-7-methoxy-1,3-dimethylquinolin-2(1H)-one] | 2010 to 5000 nM | 51 to 100 nM |  |  |  |
| Cc1cc2c(N3CCN(C)c4cc(-c5cnn(C)c5)ncc43)cc(N3CCC4(COC4)C3)cc2n(C)c1=O [Example 150] | 2010 to 5000 nM | < 50 nM |  |  |  |
| COc1cc2c(cc(C)c(=O)n2C)c(N2CCCc3cc(-c4cnn(C)c4)c(C(F)F)cc32)n1 [Example 233, 5-(7-(Difluoromethyl)-6-(1-methyl-1H-pyrazol-4-yl)-3,4-dihydroquinolin-1(2H)-yl)-7-methoxy-1,3-dimethyl-1,6-naphthyridin-2(1H)-one] | 2010 to 5000 nM | 51 to 100 nM |  |  |  |
| CN1CCN(c2cccc3[nH]c(=O)ccc23)c2cc(C#N)c(-c3cnn(C)c3)cc21 [Example 52] |  |  | 35% | 83% |  |
| CNC(=O)C1CCN(c2cc3c(cc(C)c(=O)n3C)c(N3CCN(C)c4cc(-c5cnn(C)c5)ncc43)n2)C1 (centres unmarked) [Example 205] |  | 51 to 100 nM | 43% |  |  |
| Cc1cc2c(N3CCCc4cc(-c5cnn(C)c5)c(C(F)F)cc43)nc(N3CCC(O)C3)cc2n(C)c1=O (centres unmarked) [Example 208] | 2010 to 5000 nM | < 50 nM |  |  |  |
| Cc1cc2c(N3CCCc4cc(-c5cnn(C)c5)c(O)cc43)nc(N3CCC(O)C3)cc2n(C)c1=O (centres unmarked) [Example 245, 5-(7-Hydroxy-6-(1-methyl-1H-pyrazol-4-yl)-3,4-dihydroquinolin-1(2H)-yl)-7-(3-hydroxypyrrolidin-1-yl)-1,3-dimethyl-1,6-naphthyridin-2(1H)-one] | 2010 to 5000 nM | < 50 nM |  |  |  |
| Cc1cc2c(N3CCN(C)c4cc(-c5cnn(C)c5)ncc43)cc(OC3CCOC3)cc2n(C)c1=O (centres unmarked) [Example 157] |  | 51 to 100 nM | 41% |  |  |
| Cc1cc2c(N3CCN(C)c4cc(-c5cnn(C)c5)ncc43)nc(N3CC4(COC4)C3)cc2n(C)c1=O [Example 220] | 2010 to 5000 nM | > 10 nM |  |  |  |
| COc1cc(N2CCN(C)c3ccc(S(=O)(=O)Nc4ccccc4)cc32)c2cc(C)c(=O)n(C)c2c1 [Example 102] | 2010 to 5000 nM | > 10 nM |  |  |  |
| Cc1cc2c(N3CCN(C)c4cc(-c5cnn(C(C)C)c5)ncc43)cc(N3CCOCC3)cc2n(C)c1=O [Example 136] | 2010 to 5000 nM | < 50 nM |  |  |  |
| Cc1cc2c(N3CCN(C)c4cc(-c5cnn(C)c5)ncc43)cc(C3CCC(F)(F)CC3)cc2n(C)c1=O [Example 154] | 2010 to 5000 nM | 51 to 100 nM |  |  |  |
| Cc1cc2c(N3CCN(C)c4cc(-c5cnn(C)c5)ncc43)cccc2n(C)c1=O [Example 131] |  | > 10 nM | 52% |  |  |
| Cc1cc2c(N3CCCc4cc(-c5cnn(C)c5)c(C(F)F)cc43)nc(N3C[C@@H]4C[C@H]3CO4)cc2n(C)c1=O [Example 219] | 2010 to 5000 nM | < 50 nM |  |  |  |
| Cc1cc2c(N3CCN(C)c4cc(-c5cnn(C)c5)ncc43)cc(N3CCS(=O)(=O)CC3)cc2n(C)c1=O [Example 148] |  | > 10 nM | 55% |  |  |

Further lines, with some results ahead:

| IC50 ([1]; BRD4 FL) | IC50 [2] | inhibition at 10 µM ([1]; BRD4 FL, compound at 10 μM) | inhibition at 10 µM [2] | SMILES | inhibition at 10 µM [1] |
| --- | --- | --- | --- | --- | --- |
| 2010 to 5000 nM | 51 to 100 nM |  |  | Cc1cc2c(N3CCN(C)c4ccc(C#N)cc43)cc(OCC(=O)O)cc2n(C)c1=O [Example 82, 2-((5-(7-Cyano-4-methyl-3,4-dihydroquinoxalin-1(2H)-yl)-1,3-dimethyl-2-oxo-1,2-dihydroquinolin-7-yl)oxy)acetic acid] |  |
| 2010 to 5000 nM | < 50 nM |  |  | CNC(=O)c1ccc(-c2cc3c(cc2C#N)N(c2cc(OC)cc4c2cc(C)c(=O)n4C)CCC3)cn1 [Example 183] |  |
| 2010 to 5000 nM | < 50 nM |  |  | CNC(=O)C1CCN(c2cc3c(cc2C#N)N(c2cc(OC)cc4c2cc(C)c(=O)n4C)CCC3)CC1 [Example 181] |  |
|  | < 50 nM | 51% |  | CNC(=O)CN1CCN(c2cc(N3CCOCC3)cc3c2cc(C)c(=O)n3C)c2cnc(-c3cnn(C)c3)cc21 [Example 165, 2-(4-(1,3-Dimethyl-7-morpholino-2-oxo-1,2-dihydroquinolin-5-yl)-7-(1-methyl-1H-pyrazol-4-yl)-3,4-dihydropyrido[3,4-b]pyrazin-1(2H)-yl)-N-methylacetamide] |  |
|  |  | 48% | 38% | Cc1cc2c(N3CCCN(C)c4cc(-c5cnn(C)c5)c(C#N)cc43)cccc2[nH]c1=O [Example 5] |  |
|  | 51 to 100 nM | 16% |  | CCC(=O)NS(=O)(=O)c1ccc2c(c1)N(c1cc(OC)cc3c1cc(C)c(=O)n3C)CCN2C [Example 106] |  |
|  | < 50 nM | 44% |  | CC(=O)NS(=O)(=O)c1cc2c(cc1-c1cnn(C)c1)N(C)CCN2c1cccc2c1cc(C)c(=O)n2C [Example 112] |  |
|  | < 50 nM | 48% |  | COc1cc(N2CCN(C)c3cc(F)c(S(=O)(=O)NC(C)=O)cc32)c2cc(C)c(=O)n(C)c2c1 [Example 104] |  |
| 2010 to 5000 nM | < 50 nM |  |  | CCOC(=O)CN1CCN(c2cc(OC)cc3c2cc(C)c(=O)n3C)c2cc(C#N)c(-c3cnn(C)c3)cc21 [Example 66, Ethyl 2-(6-cyano-4-(7-methoxy-1,3-dimethyl-2-oxo-1,2-dihydroquinolin-5-yl)-7-(1-methyl-1H-pyrazol-4-yl)-3,4-dihydroquinoxalin-1(2H)-yl)acetate] |  |
| 2010 to 5000 nM | > 10 nM |  |  | Cc1cc2c(N3CCN(C)c4cc(-c5cnn(C)c5)ncc43)cc(OC(F)F)cc2n(C)c1=O [Example 129] |  |
|  | 51 to 100 nM | 48% |  | Cc1cc2c(N3CCN(C)c4cc(-c5cnn(C)c5)ncc43)cc(OCC(F)F)cc2n(C)c1=O [Example 130] |  |
| 2010 to 5000 nM | < 50 nM |  |  | CNC(=O)N1CCN(c2cc(OC)cc3c2cc(C)c(=O)n3C)c2cc(C#N)c(-c3cnn(C)c3)cc21 [Example 65, 6-Cyano-4-(7-methoxy-1,3-dimethyl-2-oxo-1,2-dihydroquinolin-5-yl)-N-methyl-7-(1-methyl-1H-pyrazol-4-yl)-3,4-dihydroquinoxaline-1(2H)-carboxamide] |  |
|  | 51 to 100 nM | 38% |  | Cc1cc2c(N3CCN(CC(=O)O)c4cc(-c5cnn(C)c5)ncc43)cc(N3CCOCC3)cc2n(C)c1=O [Example 164, 2-(4-(1,3-Dimethyl-7-morpholino-2-oxo-1,2-dihydroquinolin-5-yl)-7-(1-methyl-1H-pyrazol-4-yl)-3,4-dihydropyrido[3,4-b]pyrazin-1(2H)-yl)acetic acid] |  |
| 2010 to 5000 nM | 51 to 100 nM |  |  | COc1cc(N2CCN(C)c3cc(C4CCN(C)CC4)c(C#N)cc32)c2cc(C)c(=O)n(C)c2c1 [Example 70, 4-(7-Methoxy-1,3-dimethyl-2-oxo-1,2-dihydroquinolin-5-yl)-1-methyl-7-(1-methylpiperidin-4-yl)-1,2,3,4-tetrahydroquinoxaline-6-carbonitrile] |  |
|  | < 50 nM | 32% |  | COc1cc(N2CCN(C)c3cc(-c4cnn(C)c4)nc(C)c32)c2cc(C)c(=O)n(C)c2c1 [Example 127] |  |
